We go through 15 molecules from patent publication US11564928B1, “Cannabinoid receptor type 2 (CB2) modulators and uses thereof” (Teon Therapeutics, Inc., priority 2020, dated 2023).

Read-outs that look alike come from different tables or passages of the source.

The target of experiment [1] is T1, human CB2 receptor (Homo sapiens (Human), UniProt P34972). Put plainly: CB2 receptor binding assay ([3H]CP-55,940 displacement, HEK-293 membranes). The following applies: membranes of HEK-293 cells with human recombinant CB2R, [3H]CP-55,940, read-out: CB2 IC50.
The target of experiment [2] is human recombinant CB1R (Homo sapiens (Human), UniProt P21554). Put plainly: CB1 receptor binding assay ([3H]CP-55,940 displacement, HEK-293 membranes). The note with it: membranes of HEK-293 cells with human recombinant CB1R, [3H]CP-55,940, read-out: CB1 IC50. The method, boiled down: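 Displacement of [3H]CP-55,940 was measured on human CB1R- or CB2R-transfected HEK-293 membranes after 120 min at 37 °C, in duplicate, with filtration and scintillation counting. For CB2R, incubation used Tris-HCl 50 mM, MgCl2 5 mM, CaCl2 1 mM, BSA 0.2%, pH 7.4. Ki values were derived from variable-slope IC50 fits using Cheng–Prusoff.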

For experiment [3], the target named is T1, human CB2 receptor. In words: CB2 receptor cAMP assay (DiscoverX HitHunter cAMP XS+). Type of experiment: cell-based. The method, then:
cAMP Hunter CHO-K-1 cell lines expressing human CB2 receptor (Eurofins) were expanded from freezer stocks according to standard procedures. Cells were seeded in a total volume of 20 μL into white walled, 384-well microplates and incubated at 37° C. for the appropriate time prior to testing. cAMP modulation in agonist, inverse agonist or antagonist format was determined using the DiscoverX HitHunter cAMP XS+ assay (Eurofins). For agonist determination, cells were incubated with sample in the presence of EC80 forskolin to induce response. Media was aspirated from cells and replaced with 15 μL 2:1 HBSS/10 mM Hepes: cAMP XS+Ab reagent. Intermediate dilution of sample stocks was performed to generate 4× sample in assay buffer containing 4× EC80 forskolin. 5 μL of 4× sample was added to cells and incubated at 37° C. or room temperature for 30 or 60 minutes. Final assay vehicle concentration was 1%. For inverse agonist determination, cells were preincubated with sample in the presence of EC20 forskolin. Media was aspirated from cells and replaced with 15 μL, 2:1 HBSS/10 mM Hepes: cAMP XS+Ab reagent. Intermediate dilution of sample stocks was performed to generate 4× sample in assay buffer containing 4× EC20 forskolin. 5 μL of 4× sample was added to cells and incubated at 37° C. or room temperature for 30 or 60 minutes. Final assay vehicle concentration was 1%. For antagonist determination, cells were pre-incubated with sample followed by agonist challenge at the EC80 concentration. Media was aspirated from cells and replaced with 10 μL 1:1 HBSS/Hepes: cAMP XS+Ab reagent. 5 μL of 4× compound was added to the cells and incubated at 37° C. or room temperature for 30 minutes. 5 μL of 4× EC80 agonist was added to cells and incubated at 37° C. or room temperature for 30 or 60 minutes. EC80 forksolin was included. After appropriate compound incubation, assay signal was generated through incubation with 20 μL cAMP XS+ED/CL lysis cocktail for one hour followed by incubation with 20 μL, cAMP XS+EA reagent for three hours at room temperature. Microplates were read following signal generation with a PerkinElmer Envision instrument for chemiluminescent signal detection. Compound activity was analyzed using CBIS data analysis suite (ChemInnovation, CA). For agonist mode assay, percentage activity is calculated using the following formula: % Activity=100%×(1−(mean RLU of test sample−mean RLU of MAX control)/(mean RLU of vehicle control−mean RLU of MAX control)). For inverse agonist mode assay, percentage activity is calculated using the following formula: % Inverse Agonist Activity=100%×((mean RLU of test sample−mean RLU of EC20 forskolin)/(mean RLU of forskolin positive control−mean RLU of EC20 control)). For antagonist mode assay, percentage inhibition is calculated using the following formula: % Inhibition=100%×(mean RLU of test sample−mean RLU of EC80 control)/(mean RLU of forskolin positive control−mean RLU of EC80 control). Data are analyzed and IC50 is calculated using GraphPad Prism 5 and the model “log(inhibitor) vs. response—Variable slope”.
(In general: cAMP levels reflect the balance of adenylyl cyclase and phosphodiesterase activity.)

Where [4] appears, read: CHO-K1, read-out: Max Stimulation %.
Setting [5] is: CHO-K1, cAMP Hunter CHO-K-1 cells expressing human CB2 receptor, read-out: Max Stimulation %.
The mark [6] stands for this setting: cAMP Hunter CHO-K-1 cells expressing human CB2 receptor, read-out: cAMP IC50.

human recombinant CB1R, sequence (P21554 whole entry): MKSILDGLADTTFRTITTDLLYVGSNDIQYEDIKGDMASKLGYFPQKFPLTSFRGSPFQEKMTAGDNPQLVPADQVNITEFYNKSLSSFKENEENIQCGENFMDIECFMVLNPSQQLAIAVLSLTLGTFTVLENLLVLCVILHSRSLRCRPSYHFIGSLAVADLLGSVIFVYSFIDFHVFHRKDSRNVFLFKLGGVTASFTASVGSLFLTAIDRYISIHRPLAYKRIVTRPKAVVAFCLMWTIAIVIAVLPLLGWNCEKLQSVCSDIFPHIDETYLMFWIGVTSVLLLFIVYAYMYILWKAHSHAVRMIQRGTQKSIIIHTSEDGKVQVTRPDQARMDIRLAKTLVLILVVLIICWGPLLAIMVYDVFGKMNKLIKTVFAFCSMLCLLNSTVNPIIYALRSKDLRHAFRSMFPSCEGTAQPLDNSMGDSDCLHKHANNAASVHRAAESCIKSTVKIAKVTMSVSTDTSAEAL
T1 sequence (P34972 whole entry): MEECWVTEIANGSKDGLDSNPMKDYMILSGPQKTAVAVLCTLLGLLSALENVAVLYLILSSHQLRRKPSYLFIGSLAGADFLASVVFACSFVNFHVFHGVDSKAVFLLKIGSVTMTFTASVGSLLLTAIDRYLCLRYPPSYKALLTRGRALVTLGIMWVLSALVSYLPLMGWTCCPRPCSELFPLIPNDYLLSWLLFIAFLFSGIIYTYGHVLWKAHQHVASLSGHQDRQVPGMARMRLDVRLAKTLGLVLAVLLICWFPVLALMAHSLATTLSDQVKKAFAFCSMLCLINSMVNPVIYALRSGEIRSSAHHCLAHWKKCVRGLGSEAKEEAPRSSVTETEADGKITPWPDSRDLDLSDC

The term IC50 denotes the concentration needed to halve the response being measured. For `CC1CCC(NC(=O)c2cc3cc(-c4ccc(OC(F)F)cc4)cnc3n(CCN3CCOCC3)c2=O)CC1` (stereo not drawn) [Compound 51, 6-(4-(difluoromethoxy)phenyl)-N-(4-methylcyclohexyl)-1-(2-morpholinoethyl)-2-oxo-1,2-dihydro-1,8-naphthyridine-3-carboxamide], the IC50 in experiment [1] is 2.1 nM; in experiment [2] it was more than 10000 nM; in experiment [3] it was 2 nM. Also, the Emax in experiment [3] (setting [4]) came out at 108%.

As for `CC1CCC(NC(=O)c2c(O)c3cc(-c4ccc(F)cc4)cnc3n(CCN3CCOCC3)c2=O)CC1` (stereo not drawn) [Compound 5, 6-(4-fluorophenyl)-4-hydroxy-N-(4-methylcyclohexyl)-1-(2-morpholinoethyl)-2-oxo-1,2-dihydro-1,8-naphthyridine-3-carboxamide], the values for the IC50 in experiment [1], in experiment [2] and in experiment [3] were 6.5 nM, 3870 nM and 70 nM, respectively. The Emax in experiment [3] (setting [4]) is 75%.

For the molecule `CC(NC(=O)c1cc2cc(-c3ccc(OC(F)F)cn3)cnc2n(CCN2CCOCC2)c1=O)c1ccc(F)cc1` (stereo not drawn) [Compound 55, 6-(5-(difluoromethoxy)pyridin-2-yl)-N-(1-(4-fluorophenyl)ethyl)-1-(2-morpholinoethyl)-2-oxo-1,2-dihydro-1,8-naphthyridine-3-carboxamide], the IC50 in experiment [1] was found to be 0.6 nM; in experiment [2], 2940 nM; in experiment [3] (setting [6]), 11 nM. In addition, the Emax in experiment [3] (setting [5]) is 84%.

Turning to `COc1ccc(-c2cnc3c(c2)cc(C(=O)NC2CC4(CCC4)C2)c(=O)n3CCN2CCOCC2)cc1` [Compound 29, 6-(4-methoxyphenyl)-1-(2-morpholinoethyl)-2-oxo-N-(spiro[3.3]heptan-2-yl)-1,2-dihydro-1,8-naphthyridine-3-carboxamide], the figures for the IC50 in experiment [1], in experiment [2] and in experiment [3] were 1.2 nM, more than 10000 nM and 5 nM, respectively. The Emax in experiment [3] (setting [4]) is 107%.

Take `CC(NC(=O)c1c(O)c2cc(-c3ccc(F)cc3)cnc2n(CCN2CCOCC2)c1=O)c1ccc(F)cc1` (stereo not drawn) [Compound 9, 6-(4-fluorophenyl)-N-(1-(4-fluorophenyl)ethyl)-4-hydroxy-1-(2-morpholinoethyl)-2-oxo-1,2-dihydro-1,8-naphthyridine-3-carboxamide]: the IC50 in experiment [1] (class symbols) was less than 100 nM; in experiment [2] (class symbols) it was more than 1000 nM; in experiment [3] it was 71 nM. The Emax in experiment [3] (setting [4]) was 7%.

As for `CC(NC(=O)c1cc2cc(-c3ccc(OC(F)F)cc3)cnc2n(CCN2CCOCC2)c1=O)c1ccc(F)cc1` (stereo not drawn) [Compound 53, 6-(4-(difluoromethoxy)phenyl)-N-(1-(4-fluorophenyl)ethyl)-1-(2-morpholinoethyl)-2-oxo-1,2-dihydro-1,8-naphthyridine-3-carboxamide], the IC50 in experiment [1] (class symbols) was less than 100 nM; in experiment [2] (class symbols), more than 1000 nM; in experiment [3] (setting [6]), 2 nM. In experiment [3] (setting [5]), the Emax worked out at 85%.

Regarding `O=C(NC1CC2(CCC2)C1)c1cc2cc(Br)cnc2n(Cc2ccc(F)cn2)c1=O` [Compound 99, 6-bromo-1-((5-fluoropyridin-2-yl)methyl)-2-oxo-N-(spiro[3.3]heptan-2-yl)-1,2-dihydro-1,8-naphthyridine-3-carboxamide], the IC50 was 12 nM in experiment [1], more than 10000 nM in experiment [2] and 53 nM in experiment [3]. The Emax in experiment [3] (setting [4]) is 89%.

In the case of `COc1ccc(-c2cnc3c(c2)cc(C(=O)NC24CC(C2)C4)c(=O)n3CCN2CCOCC2)cc1` [Compound 50, N-(bicyclo[1.1.1]pentan-1-yl)-6-(4-methoxyphenyl)-1-(2-morpholinoethyl)-2-oxo-1,2-dihydro-1,8-naphthyridine-3-carboxamide], the IC50 in experiment [1] amounted to 4.3 nM; in experiment [2], 2780 nM; in experiment [3], 0.6 nM. In addition, the Emax in experiment [3] (setting [4]) stood at 80%.

For `N#Cc1ccc(-c2cnc3c(c2)cc(C(=O)NC2CC4(CCC4)C2)c(=O)n3CCN2CCOCC2)nc1` [Compound 36, 6-(5-cyanopyridin-2-yl)-1-(2-morpholinoethyl)-2-oxo-N-(spiro[3.3]heptan-2-yl)-1,2-dihydro-1,8-naphthyridine-3-carboxamide], the figures for the IC50 in experiment [1], in experiment [2] and in experiment [3] were 5 nM, more than 10000 nM and 13 nM, respectively. Besides, the Emax in experiment [3] (setting [4]) was found to be 89%.

Take `CC(C)(NC(=O)c1cc2cc(-c3ccc(C#N)cn3)cnc2n(CCN2CCOCC2)c1=O)c1ccc(F)cc1` [Compound 40, 6-(5-cyanopyridin-2-yl)-N-(2-(4-fluorophenyl)propan-2-yl)-1-(2-morpholinoethyl)-2-oxo-1,2-dihydro-1,8-naphthyridine-3-carboxamide]: the IC50 in experiment [1] was 7 nM; in experiment [2], more than 10000 nM; in experiment [3], 10 nM. Further, the Emax in experiment [3] (setting [4]) was 74%.

Take `O=C(NC1CC2(CCC2)C1)c1cc2cc(-c3ccc(OC(F)F)cc3)cnc2n(CCN2CCOCC2)c1=O` [Compound 52, 6-(4-(difluoromethoxy)phenyl)-1-(2-morpholinoethyl)-2-oxo-N-(spiro[3.3]heptan-2-yl)-1,2-dihydro-1,8-naphthyridine-3-carboxamide]: the half-maximal inhibitory concentration (IC50) came out at 10 nM in experiment [1], 962 nM in experiment [2] and 1 nM in experiment [3]. Moreover, the Emax in experiment [3] (setting [4]) turned out to be 77%.

`COc1ccc(-c2cnc3c(c2)c(O)c(C(=O)NC2CC4(CCC4)C2)c(=O)n3CCN2CCOCC2)cc1` [Compound 10, 4-hydroxy-6-(4-methoxyphenyl)-1-(2-morpholinoethyl)-2-oxo-N-(spiro[3.3]heptan-2-yl)-1,2-dihydro-1,8-naphthyridine-3-carboxamide]: the IC50 in experiment [1] is 7 nM; in experiment [2] it was more than 10000 nM; in experiment [3], 7 nM. Moreover, the Emax in experiment [3] (setting [4]) is 82%.

`CC(C)c1cnc2c(c1)cc(C(=O)N[C@H](C)c1ccc(F)cc1)c(=O)n2Cc1ccc(F)cn1` [Compound 100, (R)—N-(1-(4-fluorophenyl)ethyl)-1-((5-fluoropyridin-2-yl)methyl)-6-isopropyl-2-oxo-1,2-dihydro-1,8-naphthyridine-3-carboxamide]: the IC50 is 4 nM in experiment [1], 2880 nM in experiment [2] and 2 nM in experiment [3]. Besides, the Emax in experiment [3] (setting [4]) turned out to be 82%.

Turning to `N#Cc1ccc(-c2cnc3c(c2)cc(C(=O)NC24CC(C2)C4)c(=O)n3CCN2CCOCC2)nc1` [Compound 59, N-(bicyclo[1.1.1]pentan-1-yl)-6-(5-cyanopyridin-2-yl)-1-(2-morpholinoethyl)-2-oxo-1,2-dihydro-1,8-naphthyridine-3-carboxamide], the IC50 is 130 nM in experiment [1], more than 10000 nM in experiment [2] and 119 nM in experiment [3] (setting [6]). Besides, the Emax in experiment [3] (setting [4]) was determined as 75%.

As for `C[C@@H](NC(=O)c1cc2cc(C3COC3)cnc2n(Cc2ccc(F)cc2)c1=O)c1ccc(C#N)cc1` [Compound 101, (R)—N-(1-(4-cyanophenyl)ethyl)-1-(4-fluorobenzyl)-6-(oxetan-3-yl)-2-oxo-1,2-dihydro-1,8-naphthyridine-3-carboxamide], the IC50 stood at 7.6 nM in experiment [1], 2110 nM in experiment [2] and 21 nM in experiment [3]. The Emax in experiment [3] (setting [4]) turned out to be 71%.
